From patent EP0279079B1, “Purine derivatives as interleukin-1 inhibitors” (HOECHST MARION ROUSSEL, Inc., priority 1986, dated 1988)

How the values were obtained:
[1] = system: polymorphonuclear neutrophil (PMN); test: PMN chemotaxis (directed migration) under agarose, chemoattractant FMLP; type: cell-based, human; conditions: for directed migration inhibited by "LPS KINE": LPS stimulated mononuclear leukocyte conditioned M199 2% serum; for directed migration inhibited by interleukin-1: MEM containing IL-1 at 0 to 80 Units/ml
Experimental: (§1) Purified human IL-1 was obtained from Cistron Technology, Pinebrook, New Jersey. As is known, the production of IL-1 from macrophages or circulating monocytes can be stimulated by the presence of bacterial lipopolysaccharides. Stites et al, Basic and Clinical Immunology, page 87 (1984). Accordingly, in vitro-generated IL-1 was obtained through the incubation of mononuclear leukocytes. Mononuclear leukocytes (3 x 10^6/ml) from ficoll-hypaque separation were incubated in medium 199 (M199) containing 10% fresh autologous serum with or without lipopolysaccharides 5ng/ml or with or without supernatant from C. albicans culture for 18 hours at 37° C (10% CO2) in LAB-TEK Flaskettes (Miles Inc., Naperville, Illinois). The suspension was centrifuged (150g X 10 minutes) and the supernatant filtered (0.45 micron 4) and frozen (-70° C).
Neutrophils were placed in the center well of a triplet and the chemoattractant (FMLP 10^-7M) was placed in one outer well and M199 was placed in the opposite well. Following 2 hours incubation at 37° C the plates were fixed and stained and the zones of migration measured. The directed migration was the distance in mm that the leading front of PMN moved towards the chemoattractant.
(§2) Pure PMN (5 x 10^6/ml) were incubated for 30 minutes at 37°C with or without pentoxifylline (0.1 or 50 micrograms/ml) in M199 2% serum, "NO ADD", M199 2% serum containing LPS (1ng/ml), "LPS", mononuclear leukocyte conditioned M199 2% serum, "CONT KINE", or LPS stimulated mononuclear leukocyte conditioned M199 2% serum, "LPS KINE". The PMN were concentrated 10 fold prior to application in the under agarose chemotaxis assay.
as §2, with “5%” for “2%”, “supernatant from C. albicans culture, "C.ALB",” for “LPS (1ng/ml), "LPS",”, “C. albicans” for “LPS”, “"C. ALB” for “"LPS”
Pure PMN (5 x 10^6/ml) were incubated for 30 minutes at 37°C with or without pentoxifylline (0.1 or 50 micrograms/ml) in minimum essential medium (MEM) or MEM containing IL-1 at 0 to 80 Units/ml. The PMN were concentrated 10 fold prior to application inthe under agarose chemotaxis assay.

[2] = system: polymorphonuclear neutrophil (PMN); test: PMN adherence on nylon fiber column; type: cell-based, human; conditions: for percent adherence of PMN on the nylon column: three conditions: M199 "control", IL-1 80U/ml, "LPS KINE"
Experimental: as §1
Purified PMN (5 x 10^6/ml) were incubated 30 minutes at 37°C in M199, "NONE", LPS (1ng/ml), "LPS", mononuclear leukocyte conditioned medium, "CONT KINES", or in LPS stimulated mononuclear leukocyte conditioned medium, "LPS KINES". One ml was pipetted onto the top of a nylon fiber column and incubated at 37°C for 30 minutes. The PMN in the effluent samples were counted and the percent adherence of PMN on the column determined.
Two tenths ml of purified PMN (1 x 10^7/ml) was incubated 30 minutes at 37°C in M199, "control", or M199 containing IL-1 (80U/ml), "IL-1", or in LPS stimulated mononuclear leukocyte conditioned medium, "LPS KINE", with or without pentoxifylline (0.1 or 50 micrograms/ml).
Following incubation the samples were diluted to a final concentration of 5 x 10^6/ml with M199 (2% serum). One ml was placed onto the top of a nylon fiber column and incubated at 37°C for 30 minutes. The PMN in the effluent samples were counted and the percent adherence of PMN on the nylon column calculated.

[3] = pentoxifylline 0.1 micrograms/ml
[4] = pentoxifylline 50 micrograms/ml

CC(=O)CCCCn1c(=O)c2c(ncn2C)n(C)c1=O [Pentoxifylline, pentoxifylline]
directed migration inhibited by "LPS KINE" [1, 3]: increased
directed migration inhibited by interleukin-1 [1, 3]: increased
directed migration inhibited by "C.ALB KINE" ([1]; pentoxifylline 50 micrograms/ml, C. albicans stimulated mononuclear leukocyte conditioned M199 5% serum): increased
directed migration inhibited by "LPS KINE" [1, 4]: increased
directed migration inhibited by interleukin-1 [1, 4]: increased
directed migration inhibited by "CONT KINE" ([1]; pentoxifylline 50 micrograms/ml, mononuclear leukocyte conditioned M199 5% serum): increased
percent adherence of PMN on the nylon column [2, 3]: decreased
percent adherence of PMN on the column ([2]; pentoxifylline 50 micrograms/ml, all four conditions: M199 "NONE", LPS 1ng/ml, "CONT KINES", "LPS KINES", 30 minutes at 37°C): decreased
percent adherence of PMN on the nylon column [2, 4]: decreased
